According to US12521358B2, “Method for selecting cancer patients for whom combination therapy with retinoid and cancer therapeutic agent is effective, and combination medicament with retinoid and cancer therapeutic agent” (RaQualia Pharma Inc., priority 2020, dated 2026):

Tests used:
[1] = tested on: primary human pancreatic stellate cells; experiment: Meflin gene (ISLR) expression by qPCR after retinoid treatment (Example 4); assay type: cell-based; conditions: relative expression level, control (DMSO-treated cells) = 1, retinoid 1 μM, 48 hours
Method: (§1) The primary human pancreatic stellate cells used are those provided by Dr. Masamune, Tohoku University. The primary mouse mesenchymal stem cells used are those purchased from Cyagen Co., Ltd. Both pancreatic stellate cells and mesenchymal stem cells are considered to be the origin of CAF. As the retinoid, the retinoid contained in SCREEN-WELL Nuclear Receptor ligand library (ENZO) is used. DMEM+10% FBS is used as a culture medium. The cells are seeded in a collagen-coated dish and cultured until they are 100% confluent, and various retinoids are added to a concentration of 1 μM. After 48 hours, cells are harvested, RNA is extracted using RNeasyPLUS KIT (QIAGEN), and cDNA is synthesized using ReverseTra Ace qPCR RT Master Mix (TOYOBO). The expression level of the meflin gene (ISLR and Islr) is measured by qPCR using the Gene expression assay (Thermo Fisher scientific).

[2] = tested on: primary mouse mesenchymal stem cells; experiment: Meflin gene (Islr) expression by qPCR after retinoid treatment (Example 4); assay type: cell-based; conditions: relative expression level, control (DMSO-treated cells) = 1, retinoid 1 μM, 48 hours
Method: as §1

[3] = tested on: mouse pancreatic cancer cells mT5; experiment: Collagen arrangement in tumor stroma by second harmonic microscope (Example 16); assay type: in vivo; conditions: tamibarotene 3.0 mg/kg oral once a day for 7 days from Day 8; vs control (DMSO); Day 15
Method: C57BL/6J female mice are subcutaneously transplanted with mouse pancreatic cancer cells mT5 (1.0×10^6 cells). Eight days later (Day 8), the mice are divided into two groups, a control group and a tamibarotene administration group (AM80 group) to ensure equal tumor volume (n=5 in each group). In the AM80 group, tamibarotene (3.0 mg/kg) is orally administered once a day for 7 days from Day 8. In the control group, DMSO is orally administered instead of tamibarotene. On Day 15, mice are euthanized, and tumors are removed to prepare tissue specimens. Eight to sixteen images are randomly selected from the tumor tissue specimen, the collagen arrangement is measured with a second harmonic microscope, and the curvature (linearity) is analyzed.

[4] = tested on: primary mouse mesenchymal stem cells; experiment: Islr, Acta2, Col1a1 and Col3a1 expression by qPCR after retinoid treatment (Example 5); assay type: cell-based; conditions: vs control (DMSO), 48 hours after addition; for expression level of meflin gene (Islr): FIG. 27(A); for expression level of actin gene (Acta2): FIG. 27(B); for expression level of type I collagen gene (Col1a1): FIG. 27(C); for expression level of type III collagen gene (Col3a1): FIG. 27(D)
Method: as §1
The same method is performed as in the experiment using the primary mouse mesenchymal stem cells in Example 4. ATRA, AM80 and AM580 are used as retinoids. The expression levels of the meflin gene (Islr), actin gene (Acta2), type I collagen gene (Col1a1) and type III collagen gene (Col3a1) are measured by qPCR.

[5] = tested on: mouse pancreatic cancer cells mT5; experiment: AM80 alone in mice subcutaneously transplanted with mT5 (Example 6); assay type: in vivo
Excerpt: Pancreatic cancer cell mT5, which was distributed by Dr. David Tuveson, Cold Spring Harbor Laboratory, is used. mT5 is a pancreatic cancer cell established from a pancreatic tumor developed in KPC mice, which is a pancreatic cancer spontaneous onset model (Organoid models of human and mouse ductal pancreatic cancer. Cell. 2015 Jan. 15; 160 (1-2)): 324-38. Doi: 10.1016/j. cell. 2014.12.021. Epub 2014 Dec. 31.).
C57BL/6J female mice are subcutaneously transplanted with mouse pancreatic cancer cells mT5 (1.0×10^6 cells). Eight days later (Day 8), AM80 is orally administered for 15 days to mice in which tumor formation was confirmed. Depending on the dose of AM80 (0.1 mg/kg/day, 0.5 mg/kg/day, 1 mg/kg/day and 3 mg/kg/day), a total of 5 groups, namely, four AM80 administration groups and a control group (DMSO administration) are set up (n=5 in each group). Body weight and tumor volume are measured before the start of the AM80 administration (Day 8), Day 11, Day 15, Day 18 and Day 22. On Day 22, mice are euthanized, tumors are removed to prepare tissue specimens, the in situ hybridization (ISH) is performed to detect the expression of the meflin gene (Islr) and the actin gene (Acta2), and then the number of positive signals is counted for each. Furthermore, a tissue specimen of the tumor is prepared, immunostaining is performed with an anti-CD31 antibody to stain CD31, which is a marker for vascular endothelial cells, and the vascular lumen area is measured.

[6] = tested on: mouse pancreatic cancer cells mT5; experiment: Tamibarotene and gemcitabine in mice transplanted with mT5 (Example 7); assay type: in vivo; conditions: tamibarotene 3.0 mg/kg oral once a day for 17 days from Day 8; gemcitabine 50 mg/kg i.p. Day 15, 18, 21; to Day 24
Method: C57BL/6J female mice are subcutaneously transplanted with mouse pancreatic cancer cells mT5 (1.0×10^6 cells). […] In the Gem+AM80 group, tamibarotene (3.0 mg/kg) is orally administered once a day for 17 days from Day 8. In addition, in the Gem group and the Gem+AM80 group, gemcitabine (50 mg/kg) is intraperitoneally administered once each on Day 15, Day 18 and Day 21. In the control group, DMSO is orally administered instead of tamibarotene, and saline is intraperitoneally administered instead of gemcitabine. Tumor volume is measured before start of the AM80 administration (Day 8), Day 12, Day 15, Day 18, Day 21 and Day 24.

[7] = AM80 3 mg/kg/day vs control group, tumor removed Day 22

**Q.** `CC1=C(/C=C/C(C)=C/C=C/C(C)=C/C(=O)O)C(C)(C)CCC1O` (stereo not shown) [4-Hydroxyretinoic acid, 4-hydroxyretinoic acid] was tested. Which “ISLR expression level (mean value)” value [1] did it give?
**A.** The value was 3.264.

**Q.** And the “ISLR expression level (mean value)” value [2]?
**A.** The value was 1.912.

**Q.** Which “ISLR expression level (mean value)” value [1] does the source give for `CC1=C(/C=C/C(C)=C\C=C\C(C)=C\C(=O)O)C(C)(C)CCC1` [9-cis Retinoic acid, 9-cis-retinoic acid] here?
**A.** The value was 4.894.

**Q.** `CC1=C(/C=C/C(C)=C/C=C/C(C)=C\C(=O)O)C(C)(C)CCC1` [13-cis Retinoic, 13-cis-retinoic acid] was tested. Which “ISLR expression level (mean value)” value [1] did it give?
**A.** Its value is 7.252.

**Q.** Which results are given for `CC1(C)CCC(C)(C)c2cc(NC(=O)c3ccc(C(=O)O)cc3)ccc21` [AM80, tamibarotene]?
**A.** curvature (linearity) of collagen [3]: reducing the linearity of collagen; expression level of meflin gene (Islr) [4]: high; expression level of actin gene (Acta2) [4]: low; expression level of type I collagen gene (Col1a1) [4]: low; expression level of type III collagen gene (Col3a1) [4]: low; number of dots of the Acta2 positive signal per high-magnification field (ISH) [5, 7]: significantly lower; number of dots of the Islr positive signal per high-magnification field (ISH) [5, 7]: significantly higher; vascular lumen area (anti-CD31 immunostaining) [5, 7]: significantly higher; tumor volume ([5]; AM80 0.1, 0.5, 1 and 3 mg/kg/day oral for 15 days from Day 8, vs control (DMSO), Day 8-22): does not suppress the growth; body weight ([5]; AM80 0.1-3 mg/kg/day oral for 15 days): does not affect the body weight

**Q.** What does the source list for `CC1(C)CCC(C)(C)c2cc(C(=O)Nc3ccc(C(=O)O)cc3)ccc21` [AM580]?
**A.** ISLR expression level (mean value) [1]: 3625.326; expression level of meflin gene (Islr) [4]: high; expression level of actin gene (Acta2) [4]: low; expression level of type I collagen gene (Col1a1) [4]: low; expression level of type III collagen gene (Col3a1) [4]: low; ISLR expression level (mean value) [2]: 5.295

**Q.** With `CC1=C(/C=C/C(C)=C/C=C/C(C)=C/C(=O)O)C(C)(C)CCC1` [ATRA, all-trans retinoic acid] as the compound, how does the “ISLR expression level (mean value)” value [1] read?
**A.** The value was 217.5011.

**Q.** What about the “expression level of meflin gene (Islr)” value [4] of the same compound?
**A.** Its value is “high”.

**Q.** What about the “expression level of actin gene (Acta2)” value [4] of the same compound?
**A.** Its value is “low”.

**Q.** What about the “expression level of type I collagen gene (Col1a1)” value [4] of the same compound?
**A.** The value was “low”.

**Q.** And the “expression level of type III collagen gene (Col3a1)” value [4]?
**A.** Its value is “low”.

**Q.** And the “ISLR expression level (mean value)” value [2]?
**A.** The value was 1.693.

**Q.** What does the source list for `COc1cc(C)c(/C=C/C(C)=C/C=C/C(C)=C/C(=O)O)c(C)c1C` [Acitretin]?
**A.** ISLR expression level (mean value) [1]: 47.59; ISLR expression level (mean value) [2]: 7.659

**Q.** How did the “ISLR expression level (mean value)” value [2] turn out when `COc1ccc(-c2ccc3cc(C(=O)O)ccc3c2)cc1C12CC3CC(CC(C3)C1)C2` [Adapalene, adapalene] was run?
**A.** The value was 5.428.

**Q.** How did the “ISLR expression level (mean value)” value [1] turn out when `CC(C)(c1ccc(OCC2CO2)cc1)c1ccc(OCC2CO2)cc1` (stereo not shown) [BADGE, bisphenol A diglycidyl ether] was run?
**A.** Its value is 5089.576.

**Q.** How did the “tumor growth (tumor volume)” value [6] turn out when `Nc1ccn([C@@H]2O[C@H](CO)[C@@H](O)C2(F)F)c(=O)n1` [Gem, gemcitabine] was run?
**A.** Its value is “more significantly suppresses the tumor growth than the control group”.

**Q.** For `CC(=O)OC/C=C(C)/C=C/C=C(C)/C=C/C1=C(C)CCCC1(C)C` [Retinyl acetate, retinyl acetate], which “ISLR expression level (mean value)” value [1] is on record?
**A.** Its value is 3.29.

**Q.** Which “ISLR expression level (mean value)” value [1] does the source give for `C/C(=C\c1ccc(C(=O)O)cc1)c1ccc2c(c1)C(C)(C)CCC2(C)C` [TTNPB] here?
**A.** The value was 15.94.

**Q.** And the “ISLR expression level (mean value)” value [2]?
**A.** Its value is 5.183.
